Measurements reported in US20110237538A1, “TREATMENT OF LYSOSOMAL STORAGE DISORDERS AND OTHER PROTEOSTATIC DISEASES” (SUMMIT CORPORATION PLC, priority 2008, published 2011).

Assays:
Type in all cases: biochemical
[1] = target: T1, Jack bean α-D-mannosidase (Canavalia ensiformis, UniProt C0HJB3); experiment: α-mannosidase activity assay with p-nitrophenyl-α-D-mannopyranoside (Example 1)
T1 construct: purchased Sigma M7257
T1 sequence (C0HJB3 1-981): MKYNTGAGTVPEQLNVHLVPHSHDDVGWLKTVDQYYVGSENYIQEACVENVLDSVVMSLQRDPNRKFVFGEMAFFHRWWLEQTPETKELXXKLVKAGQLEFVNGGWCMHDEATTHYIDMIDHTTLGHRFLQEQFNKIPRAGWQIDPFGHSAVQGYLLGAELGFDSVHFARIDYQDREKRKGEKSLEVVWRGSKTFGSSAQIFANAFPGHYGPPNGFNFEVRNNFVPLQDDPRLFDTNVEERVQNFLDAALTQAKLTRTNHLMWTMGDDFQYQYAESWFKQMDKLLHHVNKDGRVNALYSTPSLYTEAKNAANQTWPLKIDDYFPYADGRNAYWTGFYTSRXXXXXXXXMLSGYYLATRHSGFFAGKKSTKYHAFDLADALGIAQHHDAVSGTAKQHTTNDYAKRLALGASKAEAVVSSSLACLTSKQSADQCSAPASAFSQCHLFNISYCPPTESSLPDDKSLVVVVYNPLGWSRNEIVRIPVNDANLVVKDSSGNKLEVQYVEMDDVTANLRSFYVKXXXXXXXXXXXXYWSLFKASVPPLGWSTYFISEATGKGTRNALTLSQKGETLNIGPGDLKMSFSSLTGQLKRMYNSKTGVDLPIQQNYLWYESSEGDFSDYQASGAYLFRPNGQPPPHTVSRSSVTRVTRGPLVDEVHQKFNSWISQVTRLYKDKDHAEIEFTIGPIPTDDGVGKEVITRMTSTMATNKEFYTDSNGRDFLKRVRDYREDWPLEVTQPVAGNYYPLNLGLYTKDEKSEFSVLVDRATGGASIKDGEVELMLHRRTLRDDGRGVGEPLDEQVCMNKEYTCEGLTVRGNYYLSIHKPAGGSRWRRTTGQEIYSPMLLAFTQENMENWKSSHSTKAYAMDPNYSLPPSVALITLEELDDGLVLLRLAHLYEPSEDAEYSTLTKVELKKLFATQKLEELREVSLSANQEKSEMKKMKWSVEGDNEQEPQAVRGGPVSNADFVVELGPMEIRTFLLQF
Description: Solutions of 0.2M Mcllvane buffer at pH 4.5 and 5 mM p-nitrophenyl-α-D-mannopyranoside (Sigma, N2127), dissolved in the buffer, were prepared. A solution of Jack bean α-D-mannosidase enzyme (Sigma, M7257, 22 Units/mg, 6.2 mg/ml.) was also prepared at 0.6 Units/ml in the buffer.
The incubation mixture consisted of 10 μl enzyme solution, 10 μl of 1 mg/ml aqueous iminosugar solution and 50 μl of 5 mM substrate made up in buffer at the optimum pH for the enzyme. The reactions were stopped by addition of 70 μl 0.4M glycine (pH 10.4) during the exponential phase of the reaction, which had been determined at the beginning using uninhibited assays in which water replaced inhibitor. Final absorbances were read at 405 nm using a Versamax microplate reader (Molecular Devices). Assays were carried out in triplicate, and the values given are means of the three replicates. Results were expressed as a percentage of uninhibited assays in which water replaced inhibitor.

[2] = tested on: N-acetyl-β-D-glucosaminidase (Bovine kidney); experiment: glycosidase assay with p-nitrophenyl substrates (Example 2); conditions: 10 μl of 5 mM iminosugar solution in 70 μl incubation mixture; 20° C.
Description: (§1) The assays were conducted as described by Watson et al. 1997, Phytochemistry 46: 255-259 using p-nitrophenyl-substrates. Assays were carried out in microtitre plates. Enzymes were assayed in 0.1M citric acid/0.2M di-sodium hydrogen phosphate (Mcllvaine) buffers at the optimum pH for the enzyme. All assays were carried out at 20° C. All enzymes and substrates were purchased from Sigma Aldrich Chemicals Limited. The incubation mixture consisted of 10 μl of enzyme solution, 10 μl of the iminosugars solution (made up in deionised water at 5 mM) and 50 μl of the appropriate 5 mM p-nitrophenyl substrate made up in McIlvaine buffer at the optimum pH for the enzyme. The reactions were stopped with 0.4M glycine (pH 10.4) during the exponential phase of the reaction, which was determined at the beginning of the assay using blanks with water, which were incubated for a range of time periods to measure the reaction rate using 5 mM substrate solution. Absorbances were read at 405 nm. Water was substituted for the inhibitors in the blanks.
(§2) The glycosidases used were α-D-glucosidase (yeast), α-D-glucosidase (Bacillus sterothermophilus), α-D-glucosidase (rice), amyloglucosidase (Aspergillus niger), β-D-glucosidase (almond), α-D-galactosidase (green coffee beans), β-D-galactosidase (bovine liver), α-L-fucosidase (bovine kidney), α-D-mannosidase (Jack bean), β-D-mannosidase (Cellullomonas fimi), Naringinase (Penicillium decumbens), N-acetyl-β-D-glucosaminidase (Bovine kidney), N-acetyl-β-D-glucosaminidase (Aspergillus oryzae) and N-acetyl-β-D-glucosaminidase (Jack bean)

[3] = target: T2, α-D-mannosidase (Jack bean) (Canavalia ensiformis, UniProt C0HJB3); experiment: as above; conditions: 10 μl of 5 mM iminosugar solution in 70 μl incubation mixture; 20° C.
T2 construct: purchased Sigma Aldrich Chemicals Limited
T2 sequence (C0HJB3 1-981): T1 sequence (C0HJB3 1-981)
Description: as §1, §2

[4] = target: T3, α-D-galactosidase (green coffee beans) (Coffea arabica, UniProt Q42656); experiment: as above; conditions: 10 μl of 5 mM iminosugar solution in 70 μl incubation mixture; 20° C.; read-out: Promotion of glycosidase activity: α-D-galactosidase (Green coffee bean)
T3 construct: purchased Sigma Aldrich Chemicals Limited
Description: as §1, §2

[5] = tested on: α-D-glucosidase (Bacillus sterothermophilus); experiment: as above; conditions: 10 μl of 5 mM iminosugar solution in 70 μl incubation mixture; 20° C.
Description: as §1, §2

[6] = Jack Bean α-mannosidase, p-nitrophenyl-α-D-mannopyranoside as the substrate

T3 sequence (Q42656 16-378): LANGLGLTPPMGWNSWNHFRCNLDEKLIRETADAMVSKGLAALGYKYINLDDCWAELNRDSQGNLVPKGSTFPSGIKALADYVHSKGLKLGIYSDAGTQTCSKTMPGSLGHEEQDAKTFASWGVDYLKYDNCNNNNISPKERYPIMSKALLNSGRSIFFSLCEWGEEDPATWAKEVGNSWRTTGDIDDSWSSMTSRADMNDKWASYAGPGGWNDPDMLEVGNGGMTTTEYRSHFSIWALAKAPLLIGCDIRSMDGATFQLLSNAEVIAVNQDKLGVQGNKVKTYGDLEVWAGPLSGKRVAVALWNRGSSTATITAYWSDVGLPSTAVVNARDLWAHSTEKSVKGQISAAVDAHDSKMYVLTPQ

Row | promotion of the mannosidase activity (in words) [1, 6] | Structure (SMILES) | Promotion of glycosidase activity: N-acetyl-β-D-gluc (Bovine kidney) [2] | Promotion of glycosidase activity: α-D-mannosidase (Jack bean) [3] | Promotion of glycosidase activity: α-D-glucosidase (Bacillus sterothermophilus) [5] | other results
1 | promotion of the mannosidase activity | OC[C@H](O)[C@@H]1NC[C@@](O)(CO)[C@H]1O [Compound 200, (2S,3S,4R)-2-((R)-1,2-dihydroxyethyl)-4-(hydroxymethyl)pyrrolidine-3,4-diol] | – | – | – | –
2 | – | CCCC[N+]1([O-])C[C@@H](O)[C@H](O)[C@H]1CO (stereo partly drawn) [Compound 95, (2R,3R,4R)-1-butyl-3,4-dihydroxy-2-(hydroxymethyl)pyrrolidine 1-oxide] | 46 % increase in absorbance compared to the water controls | 86 % increase in absorbance compared to the water controls | 53 % increase in absorbance compared to the water controls | activation at 714 µM [4]: 35%
3 | – | CCOP(=O)(CCCN1C[C@@H](N=[N+]=[N-])C[C@H]1CO)OCC [Compound 291, diethyl 3-((2S,4S)-4-azido-2-(hydroxymethyl)pyrrolidin-1-yl)propylphosphonate] | – | 43 % increase in absorbance compared to the water controls | 49 % increase in absorbance compared to the water controls | –
4 | – | CC1(C)O[C@H]2[C@H](O)[C@@H](CO[Si](C)(C)C(C)(C)C)NC(=O)[C@H]2O1 [Compound 238, (3aS,6R,7R,7aS)-6-((tert-butyldimethylsilyloxy)methyl)-7-hydroxy-2,2-dimethyltetrahydro-[1,3]dioxolo[4,5-c]pyridin-4(3aH)-one] | 31 % increase in absorbance compared to the water controls | – | 127 % increase in absorbance compared to the water controls | activation at 714 µM [4]: 30%
5 | promotion of the mannosidase activity | O=C1NC[C@@H](O)[C@@H](O)[C@]1(O)CO [Compound 170, (3R,4R,5R)-3,4,5-trihydroxy-3-(hydroxymethyl)piperidin-2-one] | – | – | – | –
6 | promotion of the mannosidase activity | O=C(O)[C@@]1(O)CNC[C@@H](O)[C@H]1O [Compound 87, (3R,4R,5R)-3,4,5-trihydroxypiperidine-3-carboxylic acid] | – | – | – | –
7 | – | CCCCCCCCCN1C[C@@H](O)[C@@H](O)[C@@H]1[C@@H](O)CO [Compound 316, (2S,3S,4R)-2-((R)-1,2-dihydroxyethyl)-1-nonylpyrrolidine-3,4-diol] | 94 % increase in absorbance compared to the water controls | – | 167 % increase in absorbance compared to the water controls | activation at 714 µM [4]: 42%
8 | – | O=C1N[C@H]([C@H](O)CO)[C@H](OCc2ccccc2)[C@@H]1OCc1ccccc1 [Compound 242, (3S,4S,5R)-3,4-bis(benzyloxy)-5-((S)-1,2-dihydroxyethyl)pyrrolidin-2-one] | 59 % increase in absorbance compared to the water controls | – | 65 % increase in absorbance compared to the water controls | activation at 714 µM [4]: 38%
9 | strong stimulation | N[C@H]1[C@H](O)[C@H](O)[C@@H](O)[C@H](O)[C@@H]1CO [Compound A] | – | – | – | stimulation ([1]; Compound A alone): 90%
10 | – | CCCC[N@+]1([O-])C[C@H](O)[C@@H](O)[C@H]1CO [Compound 165, (1S,2R,3S,4S)-1-butyl-3,4-dihydroxy-2-(hydroxymethyl)pyrrolidine 1-oxide] | 76 % increase in absorbance compared to the water controls | 43 % increase in absorbance compared to the water controls | 72 % increase in absorbance compared to the water controls | –
11 | – | CCCCN1C[C@@H](N)C[C@H]1CO [Compound 292, ((2S,4S)-4-amino-1-butylpyrrolidin-2-yl)methanol] | – | 34 % increase in absorbance compared to the water controls | – | –
12 | – | CN1C[C@H](O)C(O)[C@@H](O)C1 [Compound 299, (3S,5S)-1-methylpiperidine-3,4,5-triol] | – | 35 % increase in absorbance compared to the water controls | – | –
13 | – | CCCC[N@@+]1([O-])C[C@@H](O)[C@H](O)[C@@H]1CO [Compound 178, (1R,2S,3R,4R)-1-butyl-3,4-dihydroxy-2-(hydroxymethyl)pyrrolidine 1-oxide] | 85 % increase in absorbance compared to the water controls | 35 % increase in absorbance compared to the water controls | 161 % increase in absorbance compared to the water controls | –

Row | Structure (SMILES) | promotion of the mannosidase activity (in words) [1, 6] | Promotion of glycosidase activity: N-acetyl-β-D-gluc (Bovine kidney) [2] | Promotion of glycosidase activity: α-D-mannosidase (Jack bean) [3] | Promotion of glycosidase activity: α-D-glucosidase (Bacillus sterothermophilus) [5] | other results
14 | O[C@H]1[C@H]2[C@H](O)CCCN2C[C@H]1O [swainsonine, reference compound] | does not cause promotion | – | – | – | inhibition of the mannosidase (in words) [1, 6]: total inhibition of the promoted activity
